In ChEMBL document CHEMBL1201861, “Genomics of Drug Sensitity in Cancer screening data, Wellcome Trust Sanger Institute”:

What was measured:
Test in all cases: cells
K562 = format: functional, cell-based; conditions: Homo sapiens
Description: SANGER: Inhibition of human K-562 cell growth in a cell viability assay.

MKN-45 = format: functional, cell-based, Homo sapiens; conditions: Homo sapiens, MKN-45;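 also: growth inhibition of human MKN-45 cells, measured with a cell viability assay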
SNU-5 = format: functional, cell-based; conditions: Homo sapiens;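 also: cell viability readout used to measure growth inhibition in human NCI-SNU-5 cells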
Description: SANGER: Inhibition of human NCI-SNU-5 cell growth in a cell viability assay.

Becker = format: functional, cell-based, Homo sapiens; conditions: Homo sapiens, Becker;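 also: growth inhibition of Becker cells, read out with a cell viability assay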
Description: SANGER: Inhibition of human Becker cell growth in a cell viability assay.

SNU-C2B = format: functional, cell-based, Homo sapiens; conditions: Homo sapiens, SNU-C2B;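 also: cell viability readout used to measure compound-driven suppression of SNU-C2B cell proliferation, IC50 marking half-maximal growth inhibition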
Description: SANGER: Inhibition of human SNU-C2B cell growth in a cell viability assay.

OE33 = format: functional, cell-based, Homo sapiens; conditions: Homo sapiens, OE33;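 also: growth inhibition of human OE33 cells, measured by a cell viability assay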
Description: SANGER: Inhibition of human OE33 cell growth in a cell viability assay.

S-117 = format: functional, cell-based, Homo sapiens; conditions: Homo sapiens, S-117
Description: SANGER: Inhibition of human S-117 cell growth in a cell viability assay.

RH-1 = format: functional, cell-based, Homo sapiens; conditions: Homo sapiens, RH-1;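 also: growth inhibition of human RH-1 cells, read out with a cell viability assay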
C2BBe1 = format: functional, cell-based, Homo sapiens; conditions: Homo sapiens, C2BBe1;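 also: growth inhibition of C2BBe1 cells, read out through a viability assay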
Description: SANGER: Inhibition of human C2BBe1 cell growth in a cell viability assay.

TGBC1TKB = format: functional, cell-based, Homo sapiens; conditions: Homo sapiens, TGBC1TKB;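 also: growth inhibition of TGBC1TKB cells, read out by a cell viability assay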
Description: SANGER: Inhibition of human TGBC1TKB cell growth in a cell viability assay.

KYSE-140 = format: functional, cell-based, Homo sapiens; conditions: Homo sapiens, KYSE-140;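 also: cell viability assay measuring growth inhibition in human KYSE-140 cells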
Description: SANGER: Inhibition of human KYSE-140 cell growth in a cell viability assay.

COLO-829 = format: functional, cell-based, Homo sapiens; conditions: Homo sapiens, COLO-829
Description: SANGER: Inhibition of human COLO-829 cell growth in a cell viability assay.

CAL-72 = format: functional, cell-based, Homo sapiens; conditions: Homo sapiens, CAL-72;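 also: cell viability assay measuring inhibition of proliferation in the CAL-72 cell line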
Description: SANGER: Inhibition of human CAL-72 cell growth in a cell viability assay.

TE-11 = format: functional, cell-based, Homo sapiens; conditions: Homo sapiens, TE-11;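 also: growth inhibition of human TE-11 cells, read out by a cell viability assay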
Description: SANGER: Inhibition of human TE-11 cell growth in a cell viability assay.

SW626 = format: functional, cell-based, Homo sapiens; conditions: Homo sapiens, SW626;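 also: growth inhibition of SW626 cells, measured with a cell viability assay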
Description: SANGER: Inhibition of human SW626 cell growth in a cell viability assay.

D-502MG = format: functional, cell-based, Homo sapiens; conditions: Homo sapiens, D-502MG
Description: SANGER: Inhibition of human D-502MG cell growth in a cell viability assay.

HT-1376 = format: functional, cell-based, Homo sapiens; conditions: Homo sapiens, HT-1376
Description: SANGER: Inhibition of human HT-1376 cell growth in a cell viability assay.

EW-16 = format: functional, cell-based, Homo sapiens; conditions: Homo sapiens, EW-16;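 also: growth inhibition of human EW-16 cells, read out as cell viability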
Description: SANGER: Inhibition of human EW-16 cell growth in a cell viability assay.

RXF 393 = format: functional, cell-based; conditions: Homo sapiens;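 also: growth inhibition of human RXF 393 cells, read out with a cell viability assay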
GI-ME-N = format: functional, cell-based, Homo sapiens; conditions: Homo sapiens, GI-ME-N;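 also: growth inhibition of human GI-ME-N cells, read out with a cell viability assay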
Description: SANGER: Inhibition of human GI-ME-N cell growth in a cell viability assay.

HOP-92 = format: functional, cell-based, Homo sapiens; conditions: Homo sapiens, HOP-92;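 also: cell viability readout, with IC50 reflecting inhibition of HOP-92 cell growth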
Description: SANGER: Inhibition of human HOP-92 cell growth in a cell viability assay.

HCC1395 = format: functional, cell-based, Homo sapiens; conditions: Homo sapiens, HCC1395;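 also: growth inhibition of HCC1395 cells, read out by a cell viability assay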
Description: SANGER: Inhibition of human HCC1395 cell growth in a cell viability assay.

UACC-62 = format: functional, cell-based, Homo sapiens; conditions: Homo sapiens, UACC-62;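 also: growth inhibition of human UACC-62 cells, read out by a cell viability assay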
Description: SANGER: Inhibition of human UACC-62 cell growth in a cell viability assay.

HLE = format: functional, cell-based, Homo sapiens; conditions: Homo sapiens, HLE;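 also: growth inhibition of human HLE cells, read out by a cell viability assay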
Description: SANGER: Inhibition of human HLE cell growth in a cell viability assay.

D-542MG = format: functional, cell-based, Homo sapiens; conditions: Homo sapiens, D-542MG
Description: SANGER: Inhibition of human D-542MG cell growth in a cell viability assay.

HSC-3 = format: functional, cell-based, Homo sapiens; conditions: Homo sapiens, HSC-3
Description: SANGER: Inhibition of human HSC-3 cell growth in a cell viability assay.

SK-MEL-28 = format: functional, cell-based; conditions: Homo sapiens;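 also: growth inhibition of human SK-MEL-28 cells, read out with a cell viability assay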
Description: SANGER: Inhibition of human SK-MEL-28 cell growth in a cell viability assay.

NB13 = format: functional, cell-based, Homo sapiens; conditions: Homo sapiens, NB13;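 also: cell viability readout measuring growth inhibition of human NB13 cells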
Description: SANGER: Inhibition of human NB13 cell growth in a cell viability assay.

PANC-08-13 = format: functional, cell-based, Homo sapiens; conditions: Homo sapiens, PANC-08-13;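 also: cell growth inhibition, measured with a cell viability assay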
Description: SANGER: Inhibition of human PANC-08-13 cell growth in a cell viability assay.

PANC-03-27 = format: functional, cell-based, Homo sapiens; conditions: Homo sapiens, PANC-03-27
Description: SANGER: Inhibition of human PANC-03-27 cell growth in a cell viability assay.

MHH-NB-11 = format: functional, cell-based, Homo sapiens; conditions: Homo sapiens, MHH-NB-11;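 also: growth inhibition of human MHH-NB-11 cells, read out by a cell viability assay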
Description: SANGER: Inhibition of human MHH-NB-11 cell growth in a cell viability assay.

MIA PaCa-2 = format: functional, cell-based, Homo sapiens; conditions: Homo sapiens, MIA PaCa-2;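 also: growth inhibition of MIA PaCa-2 cells, read out with a cell viability assay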
Description: SANGER: Inhibition of human MIA-PaCa-2 cell growth in a cell viability assay.

DU-4475 = format: functional, cell-based; conditions: Homo sapiens
Description: SANGER: Inhibition of human DU-4475 cell growth in a cell viability assay.

DMS-79 = format: functional, cell-based; conditions: Homo sapiens;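 also: growth inhibition measured with a cell viability assay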
Description: SANGER: Inhibition of human DMS-79 cell growth in a cell viability assay.

KNS-81-FD = format: functional, cell-based, Homo sapiens; conditions: Homo sapiens, KNS-81-FD;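 also: growth inhibition of KNS-81-FD cells, read out with a cell viability assay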
Description: SANGER: Inhibition of human KNS-81-FD cell growth in a cell viability assay.

TYK-nu = format: functional, cell-based, Homo sapiens; conditions: Homo sapiens, TYK-nu;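 also: growth inhibition of human TYK-nu cells, read out by a cell viability assay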
Description: SANGER: Inhibition of human TYK-nu cell growth in a cell viability assay.

NCI-H1792 = format: functional, cell-based, Homo sapiens; conditions: Homo sapiens, NCI-H1792;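 also: growth inhibition of human NCI-H1792 cells, read out as cell viability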
Description: SANGER: Inhibition of human NCI-H1792 cell growth in a cell viability assay.

LB1047-RCC = format: functional, cell-based, Homo sapiens; conditions: Homo sapiens, LB1047-RCC;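 also: inhibition of cell growth, determined with a cell viability assay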
Description: SANGER: Inhibition of human LB1047-RCC cell growth in a cell viability assay.

ME-180 = format: functional, cell-based; conditions: Homo sapiens;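 also: cell viability assay measuring growth inhibition of ME-180 cells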
Description: SANGER: Inhibition of human ME-180 cell growth in a cell viability assay.

CP50-MEL-B = format: functional, cell-based, Homo sapiens; conditions: Homo sapiens, CP50-MEL-B;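 also: growth inhibition of the human cell line, measured with a cell viability read-out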
Description: SANGER: Inhibition of human CP50-MEL-B cell growth in a cell viability assay.

NMC-G1 = format: functional, cell-based, Homo sapiens; conditions: Homo sapiens, NMC-G1;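 also: growth inhibition of the NMC-G1 cell line, measured with a cell viability read-out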
Description: SANGER: Inhibition of human NMC-G1 cell growth in a cell viability assay.

GOTO = format: functional, cell-based, Homo sapiens; conditions: Homo sapiens, GOTO;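 also: growth inhibition of GOTO cells, read out by a cell viability assay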
Description: SANGER: Inhibition of human GOTO cell growth in a cell viability assay.

JVM-2 = format: functional, cell-based; conditions: Homo sapiens;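 also: growth inhibition of JVM-2 cells determined by a cell viability assay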
Description: SANGER: Inhibition of human JVM-2 cell growth in a cell viability assay.

MDA-MB-175-VII = format: functional, cell-based, Homo sapiens; conditions: Homo sapiens, MDA-MB-175-VII
786-0 = format: functional, cell-based, Homo sapiens; conditions: Homo sapiens
Description: SANGER: Inhibition of human 786-0 cell growth in a cell viability assay.

KYSE-270 = format: functional, cell-based, Homo sapiens; conditions: Homo sapiens, KYSE-270;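 also: cell growth inhibition measured with a viability assay in the human KYSE-270 line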
Description: SANGER: Inhibition of human KYSE-270 cell growth in a cell viability assay.

HTC-C3 = format: functional, cell-based, Homo sapiens; conditions: Homo sapiens, HTC-C3;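 also: inhibition of cell growth, read out with a cell viability assay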
Description: SANGER: Inhibition of human HTC-C3 cell growth in a cell viability assay.

CTV-1 = format: functional, cell-based; conditions: Homo sapiens;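 also: growth inhibition of the cell line, read out with a cell viability assay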
Description: SANGER: Inhibition of human CTV-1 cell growth in a cell viability assay.

NCI-H1563 = format: functional, cell-based, Homo sapiens; conditions: Homo sapiens, NCI-H1563;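 also: growth inhibition of human NCI-H1563 cells, read out with a cell viability assay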
Description: SANGER: Inhibition of human NCI-H1563 cell growth in a cell viability assay.

D-336MG = format: functional, cell-based, Homo sapiens; conditions: Homo sapiens, D-336MG
Description: SANGER: Inhibition of human D-336MG cell growth in a cell viability assay.

**Q.** Which results are given for Cc1ccc(Nc2nccc(N(C)c3ccc4c(C)n(C)nc4c3)n2)cc1S(N)(=O)=O [PAZOPANIB]?
**A.** IC50 (K562): > 8000 nM; IC50 (MKN-45): > 8000 nM; IC50 (SNU-5): > 8000 nM; IC50 (Becker): > 8000 nM; IC50 (SNU-C2B): > 8000 nM; IC50 (OE33): > 8000 nM; IC50 (S-117): 7580 nM; IC50 (RH-1): > 8000 nM; IC50 (C2BBe1): > 8000 nM; IC50 (TGBC1TKB): > 8000 nM; IC50 (KYSE-140): > 8000 nM; IC50 (COLO-829): > 8000 nM; IC50 (CAL-72): 5940 nM; IC50 (TE-11): > 8000 nM; IC50 (SW626): > 8000 nM; IC50 (D-502MG): 7780 nM; IC50 (HT-1376): > 8000 nM; IC50 (EW-16): > 8000 nM; IC50 (RXF 393): > 8000 nM; IC50 (GI-ME-N): > 8000 nM; IC50 (HOP-92): > 8000 nM; IC50 (HCC1395): 2580 nM; IC50 (UACC-62): > 8000 nM; IC50 (HLE): 1640 nM; IC50 (D-542MG): > 8000 nM; IC50 (HSC-3): > 8000 nM; IC50 (SK-MEL-28): > 8000 nM; IC50 (NB13): > 8000 nM; IC50 (PANC-08-13): > 8000 nM; IC50 (PANC-03-27): > 8000 nM; IC50 (MHH-NB-11): > 8000 nM; IC50 (MIA PaCa-2): 5600 nM; IC50 (DU-4475): > 8000 nM; IC50 (DMS-79): > 8000 nM; IC50 (KNS-81-FD): > 8000 nM; IC50 (TYK-nu): > 8000 nM; IC50 (NCI-H1792): > 8000 nM; IC50 (LB1047-RCC): 3530 nM; IC50 (ME-180): > 8000 nM; IC50 (CP50-MEL-B): > 8000 nM; IC50 (NMC-G1): 6550 nM; IC50 (GOTO): > 8000 nM; IC50 (JVM-2): > 8000 nM; IC50 (MDA-MB-175-VII): > 8000 nM; IC50 (786-0): > 8000 nM; IC50 (KYSE-270): > 8000 nM; IC50 (HTC-C3): > 8000 nM; IC50 (CTV-1): 6210 nM; IC50 (NCI-H1563): > 8000 nM

**Q.** Which results are given for C=CCNC1=C2C[C@@H](C)C[C@H](OC)[C@H](O)[C@@H](C)/C=C(\C)[C@H](OC(N)=O)[C@@H](OC)/C=C\C=C(/C)C(=O)NC(=CC1=O)C2=O [TANESPIMYCIN]?
**A.** IC50 (K562): > 1000 nM; IC50 (MKN-45): 82.2 nM; IC50 (SNU-5): 305 nM; IC50 (Becker): 38.9 nM; IC50 (SNU-C2B): 580 nM; IC50 (OE33): 851 nM; IC50 (S-117): 206 nM; IC50 (RH-1): > 1000 nM; IC50 (C2BBe1): 222 nM; IC50 (TGBC1TKB): 80.4 nM; IC50 (KYSE-140): > 1000 nM; IC50 (COLO-829): 120 nM; IC50 (CAL-72): > 1000 nM; IC50 (TE-11): 80 nM; IC50 (SW626): 335 nM; IC50 (D-502MG): > 1000 nM; IC50 (HT-1376): 169 nM; IC50 (EW-16): > 1000 nM; IC50 (RXF 393): 120 nM; IC50 (GI-ME-N): 772 nM; IC50 (HOP-92): > 1000 nM; IC50 (HCC1395): > 1000 nM; IC50 (UACC-62): 322 nM; IC50 (HLE): > 1000 nM; IC50 (D-542MG): > 1000 nM; IC50 (HSC-3): 9.29 nM; IC50 (SK-MEL-28): 113 nM; IC50 (NB13): 368 nM; IC50 (D-336MG): 33.1 nM; IC50 (PANC-08-13): 532 nM; IC50 (PANC-03-27): 103 nM; IC50 (MHH-NB-11): > 1000 nM; IC50 (MIA PaCa-2): 10.1 nM; IC50 (DU-4475): 22.6 nM; IC50 (KNS-81-FD): 184 nM; IC50 (TYK-nu): 39.9 nM; IC50 (NCI-H1792): 96.2 nM; IC50 (LB1047-RCC): 53 nM; IC50 (ME-180): 28.9 nM; IC50 (CP50-MEL-B): 34.5 nM; IC50 (NMC-G1): 293 nM; IC50 (GOTO): 452 nM; IC50 (JVM-2): > 1000 nM; IC50 (MDA-MB-175-VII): 33.5 nM; IC50 (786-0): 154 nM; IC50 (KYSE-270): 231 nM; IC50 (HTC-C3): 265 nM; IC50 (CTV-1): 527 nM; IC50 (NCI-H1563): 949 nM

**Q.** Which results are given for Cn1cncc1[C@@](N)(c1ccc(Cl)cc1)c1ccc2c(c1)c(-c1cccc(Cl)c1)cc(=O)n2C [TIPIFARNIB]?
**A.** IC50 (K562): 4820 nM; IC50 (MKN-45): 2790 nM; IC50 (SNU-5): > 16000 nM; IC50 (Becker): 6400 nM; IC50 (SNU-C2B): 10400 nM; IC50 (OE33): 12600 nM; IC50 (S-117): 9590 nM; IC50 (RH-1): 2750 nM; IC50 (C2BBe1): > 16000 nM; IC50 (TGBC1TKB): > 16000 nM; IC50 (KYSE-140): 1110 nM; IC50 (COLO-829): 12600 nM; IC50 (CAL-72): 4950 nM; IC50 (TE-11): 1690 nM; IC50 (SW626): 1370 nM; IC50 (D-502MG): > 16000 nM; IC50 (HT-1376): 11600 nM; IC50 (EW-16): 3590 nM; IC50 (RXF 393): > 16000 nM; IC50 (GI-ME-N): > 16000 nM; IC50 (HOP-92): 9130 nM; IC50 (HCC1395): 14900 nM; IC50 (UACC-62): > 16000 nM; IC50 (HLE): 448 nM; IC50 (D-542MG): 1410 nM; IC50 (HSC-3): 2630 nM; IC50 (SK-MEL-28): > 16000 nM; IC50 (NB13): 4620 nM; IC50 (PANC-08-13): > 16000 nM; IC50 (PANC-03-27): 5730 nM; IC50 (MHH-NB-11): > 16000 nM; IC50 (MIA PaCa-2): 320 nM; IC50 (DU-4475): 2190 nM; IC50 (DMS-79): > 16000 nM; IC50 (KNS-81-FD): 11200 nM; IC50 (TYK-nu): > 16000 nM; IC50 (NCI-H1792): > 16000 nM; IC50 (LB1047-RCC): > 16000 nM; IC50 (ME-180): 14500 nM; IC50 (CP50-MEL-B): > 16000 nM; IC50 (NMC-G1): 425 nM; IC50 (GOTO): > 16000 nM; IC50 (JVM-2): > 16000 nM; IC50 (MDA-MB-175-VII): > 16000 nM; IC50 (786-0): 342 nM; IC50 (KYSE-270): 217 nM; IC50 (HTC-C3): 4830 nM; IC50 (CTV-1): 4580 nM; IC50 (NCI-H1563): > 16000 nM
